Results taken from patent publication US20030022871A1, “Method for modulating tumor growth and metastasis of tumor cells” (priority 2002, published 2003).

How the values were obtained:
Id1 [1] = molecular target: T1, Id1 (Homo sapiens, UniProt P41134); assay: 4R-TK-CAT reporter assay with E12 and Id1 plasmids in mammalian culture cells; assay type: cell-based
T1 sequence (P41134 1-155): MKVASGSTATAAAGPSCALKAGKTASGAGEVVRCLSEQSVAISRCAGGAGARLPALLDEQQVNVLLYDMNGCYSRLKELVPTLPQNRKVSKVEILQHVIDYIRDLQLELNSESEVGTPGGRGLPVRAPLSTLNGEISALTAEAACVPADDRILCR
Source text: (§1) Plasmids capable of expressing proteins when introduced into mammalian culture cells were used to test the activity of those proteins. In the assay depicted below, a plasmid that contains sequences to which the E12 protein binds upstream of a reporter gene (4R-TK-CAT) ix mixed with an E12 encoding plasmid and an Id plasmid to see if Id can inhibit the ability of E12 protein to bind and activate the reporter gene, in a similar to that described in Pesce, 1993 #163. If E12 binds to its sequence in the 4R-TK-CAT vector, it causes expression of the chloramphenical acetyltransferase (CAT) gene. The protein product of the CAT gene has an enzymatic activity that can be quantified. Uptake of the various plasmids was normalized to the expression of luciferase activity from a separate plasmid added in equal amounts to all cultures.

Id1 [2] = molecular target: T1, Id1; assay: Gel shift: Id1 antagonism of E47 binding to radiolabeled DNA; assay type: biochemical
Protocol: Purified Id1 and its target protein E12 are mixed to together in vitro, and the ability of Id1 to antagonize DNA binding capacity of E12 is measured. To measure E12 DNA binding activity, the mixtures were incubated with radiolabeled DNA sequences to which E12 binds and the protein/DNA complexes resolved on a native polyacrylamide gel as described [Benezra, 1994 #463].
In this experiment, 50 nanograms of E47 protein (described in Example I) was present in reaction mixtures of 100, 200, and 400 nanograms of Id1, designated +, ++, and +++ respectively in FIG. 2. Tetracycline was added to the reactions as indicated (+) to about 200 Tg/ml final concentration. Radiolabeled DNA to which E47 binds was then introduced in each mixture. […] Each of the mixtures was permitted to incubate at room temperature for about 30 minutes. Then, the mixtures were electrophoresed in an 8% native polyacrylamide gel as described in Benezra, 1994.
After electrophoresing the samples, the gel was dried and exposed to autoradiographic film to make an autoradiograph of the gel.

E47 = molecular target: T2, E47 (Homo sapiens, UniProt P15923); assay: Native polyacrylamide gel binding of tritiated tetracycline to protein; conditions: 10-30-fold molar excess of tritiated tetracycline, PBS, room temperature 30 minutes, 8% native gel autoradiogram
T2 sequence (P15923 1-651 isoform P15923-2): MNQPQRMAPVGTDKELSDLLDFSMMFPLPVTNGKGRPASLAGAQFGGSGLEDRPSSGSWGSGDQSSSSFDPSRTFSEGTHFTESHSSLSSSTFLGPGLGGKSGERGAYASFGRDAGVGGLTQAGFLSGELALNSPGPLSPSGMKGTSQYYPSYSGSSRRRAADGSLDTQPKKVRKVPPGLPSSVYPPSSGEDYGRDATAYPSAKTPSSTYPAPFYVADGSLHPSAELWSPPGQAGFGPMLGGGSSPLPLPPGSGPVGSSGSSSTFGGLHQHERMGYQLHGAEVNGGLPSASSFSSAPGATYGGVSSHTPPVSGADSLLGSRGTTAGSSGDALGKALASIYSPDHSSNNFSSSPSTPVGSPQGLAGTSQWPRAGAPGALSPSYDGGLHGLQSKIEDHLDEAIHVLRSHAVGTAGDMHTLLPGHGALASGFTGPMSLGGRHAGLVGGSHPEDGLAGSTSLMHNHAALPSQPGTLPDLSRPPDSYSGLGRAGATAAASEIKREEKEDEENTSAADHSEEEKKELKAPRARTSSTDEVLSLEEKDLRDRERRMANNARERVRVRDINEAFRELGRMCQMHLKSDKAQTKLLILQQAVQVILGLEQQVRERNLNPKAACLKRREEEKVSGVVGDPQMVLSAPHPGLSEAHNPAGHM
Protocol: (§2) Radiolabeled tetracycline (tritiated) was mixed with purified Id1 protein and other proteins separately to permit contact between the labeled tetracycline and the proteins. […] The complexes could then be visualized in an autoradiogram of the gel, e.g., exposure of the gel to x-ray film.
(§3) In this experiment, a 10-30-fold molar excess of tritiated tetracycline was added to the indicated proteins separately in 10 Tl reaction tube containing one of the proteins and phosphate buffered saline at physiological pH. Proteins used in this experiment were:
(§4) The mixtures were incubated at room temperature for 30 minutes. Bromophenol blue was added to each sample at 0.01% (v/v). The samples were then electrophoresed on an 8% native polyacrylamide gel.
(§5) After electrophoresing the samples, the gel was dried and exposed to autoradiographic film for 12 hours to make an autoradiogram of the gel.

E12 [3] = molecular target: T3, E12 (Homo sapiens, UniProt P15923); assay: as above; conditions: 10-30-fold molar excess of tritiated tetracycline, PBS, room temperature 30 minutes, 8% native gel autoradiogram
T3 construct: expressed in transfected cells
T3 sequence (P15923 1-654): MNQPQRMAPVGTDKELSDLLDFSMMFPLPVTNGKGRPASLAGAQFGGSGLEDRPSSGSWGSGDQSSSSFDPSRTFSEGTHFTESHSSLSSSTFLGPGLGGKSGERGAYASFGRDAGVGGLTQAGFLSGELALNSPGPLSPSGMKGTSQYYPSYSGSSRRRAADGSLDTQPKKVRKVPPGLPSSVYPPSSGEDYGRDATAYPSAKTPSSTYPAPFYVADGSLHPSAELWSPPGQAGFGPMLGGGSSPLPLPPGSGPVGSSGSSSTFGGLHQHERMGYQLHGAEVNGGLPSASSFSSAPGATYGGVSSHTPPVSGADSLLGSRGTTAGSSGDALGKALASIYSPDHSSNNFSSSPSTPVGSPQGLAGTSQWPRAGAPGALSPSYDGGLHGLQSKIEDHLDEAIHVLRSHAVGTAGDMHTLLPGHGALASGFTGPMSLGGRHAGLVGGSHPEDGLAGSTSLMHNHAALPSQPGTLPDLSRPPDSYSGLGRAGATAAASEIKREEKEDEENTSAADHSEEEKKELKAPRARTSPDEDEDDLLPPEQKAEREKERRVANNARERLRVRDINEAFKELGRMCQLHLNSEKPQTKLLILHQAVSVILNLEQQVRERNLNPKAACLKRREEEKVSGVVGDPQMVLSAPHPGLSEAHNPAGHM
Protocol: as §2, §3, §4, §5

[4] = test system: Id old, an old preparation of Id in which the protein's conformation is perturbed; assay: as above; conditions: 10-30-fold molar excess of tritiated tetracycline, PBS, room temperature 30 minutes, 8% native gel autoradiogram
Protocol: as §2, §3, §4, §5

[5] = test system: Hsp90 (heat shock protein 90); assay: as above; conditions: 10-30-fold molar excess of tritiated tetracycline, PBS, room temperature 30 minutes, 8% native gel autoradiogram
Protocol: as §2, §3, §4, §5

[6] = test system: Id1 new, the normal protein (native Id1); assay: as above; conditions: 10-30-fold molar excess of tritiated tetracycline, PBS, room temperature 30 minutes, 8% native gel autoradiogram
Protocol: as §2, §3, §4, §5

MyoD = molecular target: T4, MyoD (Homo sapiens, UniProt P15172); assay: as above; conditions: 10-30-fold molar excess of tritiated tetracycline, PBS, room temperature 30 minutes, 8% native gel autoradiogram
T4 sequence (P15172 1-320): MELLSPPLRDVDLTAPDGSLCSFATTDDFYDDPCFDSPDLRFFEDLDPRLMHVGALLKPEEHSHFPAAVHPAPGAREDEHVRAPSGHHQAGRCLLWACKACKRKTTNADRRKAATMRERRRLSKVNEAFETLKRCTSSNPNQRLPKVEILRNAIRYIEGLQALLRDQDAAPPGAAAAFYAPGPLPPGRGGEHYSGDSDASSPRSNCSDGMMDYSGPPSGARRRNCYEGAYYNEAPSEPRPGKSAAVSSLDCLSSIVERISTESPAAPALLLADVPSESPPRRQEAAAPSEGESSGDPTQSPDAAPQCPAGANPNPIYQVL
Protocol: as §2, §3, §4, §5

E12 [7] = molecular target: T3, E12; assay: 4R-TK-CAT reporter assay with E12 plasmid alone in mammalian culture cells; assay type: cell-based; conditions: E12 plasmid without Id1, tetracycline 100
Source text: as §1

SMILES: CN(C)[C@@H]1C(O)=C(C(N)=O)C(=O)[C@@]2(O)C(O)=C3C(=O)c4c(O)cccc4[C@@](C)(O)[C@H]3C[C@@H]12 [tetracycline, [4S-(4I,5aI,5aI,6J,12aI)]-4-(Dimethylamino)-1,4,4a,5,5a,6-11,12a-octahydro-3,6, 10,12,12a-peiztaiydroxy-6-methyl-1,11-dioxo-2-naphthacenecarboxamide]
- Effect of tetracycline on Id1 inhibition of E12 (4R-TK-CAT reporter), Id1 high (Id1 [1]; Id1 10:1 molar excess over E12, tetracycline 100): no longer effective
- E12 binding activity (4R-TK-CAT reporter) in presence of tetracycline, Id1 (low) (Id1 [1]; Id1 plasmid at 3:1 molar excess of E12, tetracycline 100): partially restored
- E47/DNA complex band intensity with tetracycline (lane 4) versus without (lane 3) (Id1 [2]; 50 nanograms E47, 100 nanograms Id1, tetracycline about 200 Tg/ml, same said for lanes 6 vs 5 and 8 vs 7 (200, 400 nanograms Id1)): much more intense
- Effect on Id activity, i.e. dimerizing with a protein member of the HLH super family, in vitro (Id1 [2]; tetracycline about 200 Tg/ml, 50 nanograms E47, 100-400 nanograms Id1): clearly inhibits Id activity
- Binding of radiolabeled tetracycline to E47 (lane 6) (E47): did not bind
- Binding of radiolabeled tetracycline to E12 (lane 2) (E12 [3]): did not bind
- Binding of radiolabeled tetracycline to old Id having a perturbed conformation (lane 3) [4]: no radiolabeled tetracycline was detected
- Binding of radiolabeled tetracycline to Hsp90 (lane 1) [5]: did not bind
- Binding of radiolabeled tetracycline to native Id1 (lane 4) [6]: bound to native Id1
- Binding of radiolabeled tetracycline to MyoD (lane 5) (MyoD): did not bind
- Effect of tetracycline on E12 activation of 4R-TK-CAT (E12 [7]): not effected
